PubChem BioAssay AID328 (DTP/NCI, 2004)
Several values for one entry are separate records, joined by “and”; a condition that tells them apart may be missing. Equal entries are not always repeated. Inconclusive results and toxic doses are left out.

Test system: BDF1 mice, P388 leukemia ip, median survival T/C
Assay: NCI In Vivo Anticancer Drug Screen. Data for tumor model P388 Leukemia (intraperitoneal) in B6D2F1 (BDF1) mice
Settings: endpoint: median survival time, higher = longer survival
Outline: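 Antitumour effect was judged in vivo: survival in drug-treated mice, normalised to that of vehicle-dosed controls, gives the reported T/C.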

[1] = dose: 100.0 mg/kg/injection, schedule: Q01DX009 (ip), vehicle: saline
[2] = dose: 200.0 mg/kg/injection, schedule: Q01DX009 (ip), vehicle: saline
[3] = dose: 400.0 mg/kg/injection, schedule: Q01DX009 (ip), vehicle: saline
[4] = dose: 50.0 mg/kg/injection, schedule: Q01DX009 (ip), vehicle: saline with Tween-80
[5] = dose: 200.0 mg/kg/injection, schedule: Q01DX009 (ip), vehicle: saline with Tween-80

In the case of `O=c1[nH]cnc2c1ncn2C1OC(CO)C(O)C1O` (stereo unspecified), the T/C [1] is reported as 99 % of control, the T/C [2] is reported as 100 % of control and the T/C [3] is reported as 103 % of control.
For `OC1C=CC2C3C=CC(C3)C12` (stereo unspecified), the T/C (dose: 100.0 mg/kg/injection, schedule: Q04DX003 (ip), vehicle: saline) was 96 % of control, the T/C (dose: 200.0 mg/kg/injection, schedule: Q04DX003 (ip), vehicle: saline) was 92 % of control and the T/C (dose: 400.0 mg/kg/injection, schedule: Q04DX003 (ip), vehicle: saline) was 103 % of control.
With `O=C(c1ccccc1)C(Br)c1ccc([N+](=O)[O-])cc1` (stereo unspecified) the T/C (dose: 100.0 mg/kg/injection, schedule: Q04DX003 (ip), vehicle: Klucel (hydroxypropylcellulose) (HPC)) was 100 % of control, the T/C (dose: 200.0 mg/kg/injection, schedule: Q04DX003 (ip), vehicle: Klucel (hydroxypropylcellulose) (HPC)) was 90 % of control and the T/C (dose: 400.0 mg/kg/injection, schedule: Q04DX003 (ip), vehicle: Klucel (hydroxypropylcellulose) (HPC)) was 100 % of control.
`O=C(c1ccccc1)C1(C(=O)c2ccccc2)c2ccccc2-c2ccccc21` was tested, and the T/C (dose: 50.0 mg/kg/injection, schedule: Q01DX005 (ip), vehicle: Klucel (hydroxypropylcellulose) (HPC)) was 101 % of control, the T/C (dose: 100.0 mg/kg/injection, schedule: Q01DX005 (ip), vehicle: Klucel (hydroxypropylcellulose) (HPC)) was 104 % of control and the T/C (dose: 200.0 mg/kg/injection, schedule: Q01DX005 (ip), vehicle: Klucel (hydroxypropylcellulose) (HPC)) was 101 % of control.
In the case of `O=S(=O)(O)O.[W]`, the T/C (dose: 0.75 mg/kg/injection, schedule: Q01DX009 (ip), vehicle: saline) is reported as 96 % of control and the T/C (dose: 3.0 mg/kg/injection, schedule: Q01DX009 (ip), vehicle: saline) is reported as 90 % of control.
`ClC1=C(Cl)C(Cl)=C(Cl)C1=NN=C1C(Cl)=C(Cl)C(Cl)=C1Cl` was tested, and the T/C (dose: 50.0 mg/kg/injection, schedule: Q01DX001 (ip), vehicle: saline with Tween-80) was 100 % of control, the T/C (dose: 100.0 mg/kg/injection, schedule: Q01DX001 (ip), vehicle: saline with Tween-80) was 95 % of control and the T/C (dose: 200.0 mg/kg/injection, schedule: Q01DX001 (ip), vehicle: saline with Tween-80) was 90 % of control.
For `O=C(O)COc1ccc(Cl)cc1Cl`, the T/C [4] was 118 % of control and the T/C [5] was 90 % of control.
For `COc1cccc(Nc2sc(C(=O)c3cc4cc(Cl)ccc4o3)c(N)c2C#N)c1`, the T/C [4] was 109 % of control, the T/C (dose: 100.0 mg/kg/injection, schedule: Q01DX009 (ip), vehicle: saline with Tween-80) was 100 % of control and the T/C [5] was 115 % of control.
With `CCOC(=O)NC` the T/C [1] was 104 % of control, the T/C [2] was 100 % of control and the T/C [3] was 112 % of control.
In the case of `CCc1ccc(/C=C/c2ccc(O)c3ncccc23)[n+](C)c1`, the T/C (dose: 0.74 mg/kg/injection, schedule: Q01DX009 (ip), vehicle: saline) is reported as 100 % of control, the T/C (dose: 1.1 mg/kg/injection, schedule: Q01DX009 (ip), vehicle: saline) is reported as 109 % of control and the T/C (dose: 1.7 mg/kg/injection, schedule: Q01DX009 (ip), vehicle: Klucel (hydroxypropylcellulose) (HPC)) is reported as 108 % of control. For the same molecule, the T/C (dose: 1.7 mg/kg/injection, schedule: Q01DX009 (ip), vehicle: saline) was 150 % of control, the T/C (dose: 2.6 mg/kg/injection, schedule: Q01DX009 (ip), vehicle: saline) was 160 % of control and the T/C (dose: 4.1 mg/kg/injection, schedule: Q01DX009 (ip), vehicle: Klucel (hydroxypropylcellulose) (HPC)) was 122 % of control. For the same molecule, the T/C (dose: 8.0 mg/kg/injection, schedule: Q01DX009 (ip), vehicle: Klucel (hydroxypropylcellulose) (HPC)) was 150 % of control, the T/C (dose: 8.0 mg/kg/injection, schedule: Q01DX009 (ip), vehicle: saline with Tween-80) was 170 % of control and the T/C (dose: 8.0 mg/kg/injection, schedule: Q04DX003 (ip), vehicle: saline) was 122 % of control. The T/C (dose: 10.56 mg/kg/injection, schedule: Q01DX009 (ip), vehicle: saline with Tween-80) was 154 % of control, the T/C (dose: 16.0 mg/kg/injection, schedule: Q01DX009 (ip), vehicle: Klucel (hydroxypropylcellulose) (HPC)) was 170 % of control and the T/C (dose: 16.0 mg/kg/injection, schedule: Q01DX009 (ip), vehicle: saline with Tween-80) was 159 % of control and 179 % of control. For the same molecule, the T/C (dose: 16.5 mg/kg/injection, schedule: Q01DX009 (ip), vehicle: Klucel (hydroxypropylcellulose) (HPC)) was 160 % of control and 166 % of control, the T/C (dose: 24.0 mg/kg/injection, schedule: Q01DX009 (ip), vehicle: saline with Tween-80) was 158 % of control and the T/C (dose: 25.0 mg/kg/injection, schedule: Q01DX009 (ip), vehicle: Klucel (hydroxypropylcellulose) (HPC)) was 171 % of control and 185 % of control. The T/C (dose: 32.0 mg/kg/injection, schedule: Q01DX009 (ip), vehicle: saline with Tween-80) was 179 % of control.
With `O=C(O)CCC(=O)Nc1cccc(Oc2ccc([N+](=O)[O-])cc2[N+](=O)[O-])c1` the T/C (dose: 100.0 mg/kg/injection, schedule: Q04DX003 (ip), vehicle: other) was 95 % of control, the T/C (dose: 200.0 mg/kg/injection, schedule: Q01DX009 (ip), vehicle: Klucel (hydroxypropylcellulose) (HPC)) was 113 % of control and the T/C (dose: 200.0 mg/kg/injection, schedule: Q04DX003 (ip), vehicle: other) was 100 % of control. For the same molecule, the T/C (dose: 400.0 mg/kg/injection, schedule: Q01DX009 (ip), vehicle: Klucel (hydroxypropylcellulose) (HPC)) was 109 % of control and the T/C (dose: 400.0 mg/kg/injection, schedule: Q04DX003 (ip), vehicle: other) was 100 % of control.
